{"source": "patent US20250042926A1", "about": "“THERAPEUTIC COMPOUNDS FOR HIV” (priority 2023, published 2025)", "assay_type": "physicochemical", "settings": "kinetic solubility from DMSO stock, 1.0% DMSO, 24-hour incubation at ambient temperature, filtrate quantified by CLND", "description": "2. Kinetic Solubility Analysis (CLND: Total Chemiluminescent Nitrogen Determination)\nThe final DMSO Concentration is 1.0% and maximum theoretical compound concentration is […] (assuming stock concentration of 10 mM). The filter plate is sealed. Following 24-hour incubation at ambient temperature (21.7-23.8° C.), the samples are vacuum filtered, and the filtrates are collected in a 96 well polypropylene plate for analysis. The collection plate is sealed for analysis.\nFiltrates are injected into the nitrogen detector for quantification on Analiza's Automated Discovery Workstation. The equimolar nitrogen response of the detector is calibrated using standards which span the dynamic range of the instrument from 0.08 to 4500 μg/ml nitrogen. The filtrates are quantified with respect to this calibration curve. The calculated solubility values are corrected for background nitrogen present in the DMSO, and the media used to prepare the samples. The 1×PBS buffer (pH 7.4) is prepared by adding 50 mL of phosphate buffered saline solution 10×, PBS (Fisher Bioreagent part number BP399-500) to approximately 450 mL HPLC grade H2O. The volume of the solution is then adjusted to 500 mL for a total dilution factor of 1:10 and a final PBS concentration of 1X.", "data": [{"smiles": "Cc1cc(CC(=O)N[C@@H](CC(=O)O)C(=O)O)c(C(C)(C)CC(=O)N(c2nn(C)c3c(-n4c([C@H](Cc5cc(F)cc(F)c5)NC(=O)Cn5nc(C(F)F)c6c5C(F)(F)[C@@H]5C[C@H]65)nc5cc(-c6cccc(C(F)(F)F)n6)ccc5c4=O)ccc(Cl)c23)S(C)(=O)=O)c(OP(=O)(O)O)c1", "note": "[Compound 5, (2-(2-(4-(N-(4-Chloro-7-(2-((S)-1-(2-((3bS,4aR)-3-(difluoromethyl)-5,5-difluoro-3b,4,4a,5-tetrahydro-1H-cyclopropa[3,4]cyclopenta[1,2-c]pyrazol-1-yl)acetamido)-2-(3,5-difluorophenyl)ethyl)-4-oxo-7-(6-(trifluoromethyl)pyridin-2-yl)quinazolin-3(411)-yl)-1-methyl-1H-indazol-3-yl)methylsulfonamido)-2-methyl-4-oxobutan-2-yl)-5-methyl-3-(phosphonooxy)phenyl)acetyl)-L-aspartic acid]", "values": [{"measurement": "pH 2 Solubility (μM)", "setting": "pH 2 (medium 0.1N HCl)", "value": 1.1, "unit": "μM"}, {"measurement": "pH 7 Solubility (μM)", "setting": "pH 7 (medium 1×PBS buffer pH 7.4)", "value": 76, "unit": "μM"}]}]}
